As usually defined, the IC50 is the concentration that inhibits the measured activity by half. The Solubility is the dissolved amount per volume that the medium holds. What is called hepatocyte CLint is a measure of how fast metabolising enzymes remove a compound, apart from limits set by blood flow. Broadly, the solubility is the concentration that dissolves in the medium under given conditions. Low readings indicate little dissolved substance, high ones much dissolved substance. Broadly, the inhibition is the drop in the measured response relative to a control, in per cent. Lower therefore signals a weak effect.

≈ marks a conversion by molar mass, not a printed value. Where only a bound is given, the exact number is not on record here.

For data set [1], the system named is Thp1 human monocytic cells. Description: Thp1 Monocyte ATP Production Assay (ATPlite). The class given is cell-based. The conditions noted are these: Thp1 cells, 24 hour incubation, mean of 2 independent experiments. How it is done: In vitro potency of test compounds was determined by incubation with Thp1 human monocytic cells and subsequent determination of Adenosine TriPhosphate (ATP) levels using firefly luciferase.
ATP is present in all metabolically active cells. When cells lose integrity, their ability to synthesise ATP is rapidly lost. […] See, e.g., Kang et al., 2015; Jiang et al., 2013. Levels of ATP can be monitored using a system based on firefly (Photinus pyralis) luciferase (see, e.g., Auld et al., 2009) using commercially available kits. A system known as ATPlite™ was using to measure effects of the test compounds on cellular viability in vitro. This one-step assay system is an adenosine triphosphate (ATP) monitoring system based on the production of light caused by the reaction of ATP from the cells with added luciferase and D-luciferin, as illustrated in the reaction scheme below:
Thp1 cells were plated at 112500 cells per well in 125 μL RPMI-1640 (no glucose) with 1% FBS in 96-well plates. Test compounds were prepared as 100 mM solutions in DMSO. These stock solutions were diluted in DMSO and then diluted 1000× in culture medium (RPMI) before being added directly to the wells so as to give the desired final compound concentration. After a 24 hour incubation at 37° C./5% CO2, ATPLite™ (Perkin Elmer) was added to each well (1:10 v/v, 10 μL). The plate was then incubated at room temperature for 5 minutes and the emitted light was quantified on Viewlux with a measurement time of 0.3 seconds and binning 4×4.
The average results for each test compound were expressed as a percent (%) of the average control value reflecting cell viability. The average values across the concentrations tested were then plotted and the IC50 for was calculated by fitting the data to a 4-parameter IC50 equation using software from Graf it (Erithacus Software). Each experiment was repeated twice and the data are presented as the mean IC50 from both experiments.
Background: Cellular ATP, detected with luciferase, serves as a proxy for viable cell number.

For data set [2], the system named is human hepatocytes. Description: Human Hepatocyte Stability. In kind it is in vitro ADME. The settings on record: for metabolic stability (in words): human hepatocytes. On the procedure:
(§1) Metabolic stability of test compounds was measured by determination of the rate of disappearance of the compound when incubated in the presence of human hepatocytes, a primary source of the most important enzymes (cytochrome P450s) involved in drug metabolism. Study of drug stability in the presence of primary hepatocytes is accepted as a valuable model permitting rapid prediction of in vivo drug stability.
(§2) Human hepatocytes were obtained from a commercial source and viability was assessed using a trypan blue solution prior to use. Test compounds (final concentration 1 μM, 0.1 DMSO, 0.9% acetonitrile) or a marker (diclofenac or diltiazem, final assay concentration 1 μM, 0.1% DMSO, 0.9% acetonitrile) were incubated with pooled hepatocytes for a 60 minute period and samples removed at up to 6 time points and analysed by LC-MS/MS for the presence/amount of test compounds.
(§3) Each compound was incubated for 0, 5, 15, 30, 45, or 60 minutes. The reactions were stopped by the addition of methanol containing an internal standard (1 μM Tolbutamide) at the appropriate time points, mixed and placed at −20° C. for 1 hour to quench and allow protein to precipitate. All samples were centrifuged (2500× g, 20 minutes, 4° C.). The aliquots were analysed using LC-MS/MS. Reactions were performed in duplicate at 37° C.
(§4) Data were processed, and the results plotted as In(concentration) vs. time. The elimination rate constant (slope of the regression line, k) was calculated using the following formula, where C(t) is the concentration at time t and C(0) is the starting concentration:
(§5) The half-life (t1/2) was calculated using the following formula: […]
(§6) The intrinsic clearance (Clint) was calculated using the following formula, where [cell] is the hepatocyte concentration in the assay: […]

The nature of data set [3]: Aqueous solubility in FaSSIF. In kind it is physicochemical. The settings on record: for solubility at 16 h: kinetic from dmso stock, pH 6.5, 16 hours, room temperature. On the procedure: Aqueous solubility was measured by equilibration of compounds with fasted state simulated intestinal fluid (FaSSIF) and quantified spectrophotometrically.
Preparation of blank FaSSIF: 0.21 g of sodium hydroxide (NaOH) pellets, 1.97 g of dihydrogen sodium phosphate (NaH2PO4.2H2O) and 3.09 g of sodium chloride (NaCl) were dissolved in 400 mL of deionised water. The pH was adjusted to 6.5 using 1 M hydrochloric acid and further deionised water added to a final volume of 500 mL.
Preparation of FaSSIF: 0.056 g of SIF Powder (containing sodium taurocholate and lecithin) (Pharses A G) was dissolved in 25 mL of blank FaSSIF and stirred until the powder was completely dissolved. The solution was allowed to stand for 2 hours during which it became opalescent; it was used within 24 hours. The final solution composition was characterised as follows: • Sodium taurocholate: 3 mM • Lecithin: 0.75 mM • Osmolarity: 270±10 mOsmol • pH: 6.5
The optical density was measured at the end of the incubation period for test compounds and a reference used to determine solubility. In brief, two samples were prepared for each determination: a reference sample consisting of a stock solution of test compound in DMSO diluted in system solution (a phosphate free, low absorption buffer) and propanol; and a test sample (prepared in triplicate) consisting of 0.5 mL FaSSIF spiked with test compound at 0.2 mM. Each sample was incubated at room temperature for 16 hours with constant shaking at 250 rpm. At the end of the incubation period, 0.3 mL of each sample was filtered through a pION filter plate (PION, Woburn MA), diluted 1:1 with propanol and scanned using UV spectrophotometry at Amax ([…]) using a Spectra Max Plus—Version 2.1000 (Molecular Devices, Sunnyvale, CA), with pSOL Explorer solubility determination software (pION, Woburn, MA).
FaSSIF solubility was calculated using the following formula:
[formula] • wherein: • “OD” is the optical density; • “Cr” is the concentration of the reference (33.4 μM); and • “molecular weight” is for the test compound (e.g., 381.44 for ABD735).

The nature of data set [4]: Human Hepatocyte Stability. In kind it is in vitro ADME. The settings on record: pooled human hepatocytes, 1 μM, 60 minute incubation; for half-life at 1 μM: read-out: Human t1/2. On the procedure: as §1, §2, §3, §4, §5, §6
Data set [5] concerns the target hERG (Homo sapiens (Human), UniProt Q12809). In words: hERG Ion Channel binding assay (3H astemizole displacement). The settings on record: human, membranes of HEK293 cells stably expressing hERG, pH 7.4, probe 3H astemizole (1.5 nM); 30 μM; displacement of 3H astemizole, hERG-HEK293 membranes. How it is done: The activity of the compounds against the hERG ion channel was tested using a binding assay in stably transfected Human Embryonic Kidney cells (hERG-HEK293). hERG-HEK293 cells were cultured in MEM medium (Invitrogen)+10% FBS, glutamine and non-essential amino acids at 37° C. To prepare membranes, cells were homogenised on ice, centrifuged at 650×g for 10 minutes at +4° C., and the resulting supernatant centrifuged at 48000×g for 10 minutes at +4° C. The pellet was resuspended in ice-cold 50 mM Tris-HCl buffer, 5 mM KCl (pH 8.5) and stored frozen in aliquots until use.
For binding assays, membranes were thawed, re-suspended in assay buffer (10 mM HEPES pH 7.4, 0.1% BSA, 5 mM potassium chloride, 0.8 mM magnesium chloride, 130 mM sodium chloride, 1 mM sodium-EGTA, 10 mM glucose) and incubated with ^3H astemizole (1.5 nM), and with or without test compound at 25° C. for 60 minutes. Binding was determined following filtration of the membranes and washing in Tris-HCl buffer by scintillation counting of ^3H astemizole.
The degree of binding of compounds to the hERG ion channel (%) was obtained by measuring the binding of ^3H astemizole and its displacement by test compound. A value of 0% indicates no binding and a value of 100% indicates complete displacement of the radiolabelled ligand.
(In general: hERG is a cardiac potassium channel; its block is linked to QT prolongation.)

Setting [6] is: pooled human hepatocytes, 1 μM, 60 minute incubation.
Where [7] appears, read: Homo sapiens, THP-1, 9-point concentration range from 10 μM to 10 nM.

Sequence of hERG (Q12809 whole entry): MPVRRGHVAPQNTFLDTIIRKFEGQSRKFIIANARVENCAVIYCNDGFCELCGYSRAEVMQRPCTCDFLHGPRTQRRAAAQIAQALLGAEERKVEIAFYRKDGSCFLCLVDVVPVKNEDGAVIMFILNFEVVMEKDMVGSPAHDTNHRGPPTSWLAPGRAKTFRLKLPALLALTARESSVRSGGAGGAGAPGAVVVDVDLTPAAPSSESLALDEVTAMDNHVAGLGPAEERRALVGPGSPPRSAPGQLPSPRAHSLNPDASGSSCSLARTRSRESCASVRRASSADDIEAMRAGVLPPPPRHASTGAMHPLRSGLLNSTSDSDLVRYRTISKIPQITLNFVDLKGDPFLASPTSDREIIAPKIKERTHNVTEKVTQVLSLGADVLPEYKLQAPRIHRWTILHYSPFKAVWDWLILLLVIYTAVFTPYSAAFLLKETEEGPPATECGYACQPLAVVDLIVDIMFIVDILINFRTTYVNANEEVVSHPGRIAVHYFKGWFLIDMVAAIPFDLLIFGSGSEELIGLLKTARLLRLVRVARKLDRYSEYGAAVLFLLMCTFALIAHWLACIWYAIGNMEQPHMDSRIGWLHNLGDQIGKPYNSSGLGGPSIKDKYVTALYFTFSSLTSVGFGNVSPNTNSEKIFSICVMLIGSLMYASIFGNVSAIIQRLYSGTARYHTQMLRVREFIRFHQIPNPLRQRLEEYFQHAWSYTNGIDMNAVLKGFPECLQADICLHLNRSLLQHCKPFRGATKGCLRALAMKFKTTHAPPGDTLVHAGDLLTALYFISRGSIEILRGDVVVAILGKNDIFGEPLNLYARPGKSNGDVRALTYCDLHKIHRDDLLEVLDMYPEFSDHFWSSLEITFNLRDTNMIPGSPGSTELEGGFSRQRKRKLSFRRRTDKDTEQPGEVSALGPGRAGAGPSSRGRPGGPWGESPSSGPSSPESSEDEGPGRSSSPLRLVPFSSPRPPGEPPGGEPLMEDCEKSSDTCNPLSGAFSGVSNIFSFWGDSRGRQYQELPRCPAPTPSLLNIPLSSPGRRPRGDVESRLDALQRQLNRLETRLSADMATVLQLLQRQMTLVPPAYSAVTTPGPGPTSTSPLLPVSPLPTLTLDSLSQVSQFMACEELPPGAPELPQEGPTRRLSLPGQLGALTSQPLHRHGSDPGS

For the compound `CC1(O)CCC(NS(=O)(=O)c2ccc(-c3ccc(F)cc3F)cc2)CC1` (stereo not shown) [ABD900, reference compound], the IC50 in data set [1] (9-point concentration range from 10 μM to 10 nM) was determined as 1100 nM. Besides, in data set [2] (setting [6]), the “Human Clint” value was 6.3 uL/min/million cells and the “Human t1/2” value amounted to 3.67 h. The same compound had a Solubility in data set [3] (pH 6.8) of 120 µg/mL (≈ 315 µM).

In data set [1] (setting [7]), `CC(=O)N1CCC(CS(=O)(=O)c2ccc(-c3ccc(F)c(F)c3)cc2)CC1` [NASMP-02, 1-(4-(((3′,4′-Difluoro-[1,1′-biphenyl]-4-yl)sulfonyl)methyl)piperidin-1-yl)ethan-1-one] displayed an IC50 of 7900 nM. In addition, in data set [4], the hepatocyte CLint at 1 μM is below 3 µL/min/1e6 cells and the half-life at 1 μM is above 7.67 h. Besides, in data set [2], the “metabolic stability (in words)” value is on record as “exceptionally good stability”. Also, in data set [3], the solubility at 16 h was 32 µg/mL (≈ 81.3 µM). The inhibition at 60 min, 30 µM in data set [5] turned out to be 30%.

Take `CC(=O)N1CCC(CS(=O)(=O)c2ccc(-c3cc(F)ccc3F)cc2)CC1` [NASMP-03, 1-(4-(((2′,5′-Difluoro-[1,1′-biphenyl]-4-yl)sulfonyl)methyl)piperidin-1-yl)ethan-1-one]: in data set [1] (setting [7]), it took 3000 nM to reach half-maximal inhibition (IC50). In data set [4], the hepatocyte CLint at 1 μM is below 3 µL/min/1e6 cells and the half-life at 1 μM is above 7.67 h. For the same compound, the “metabolic stability (in words)” value in data set [2] is listed as “exceptionally good stability”. The same compound came in with a solubility at 16 h in data set [3] of 42 µg/mL (≈ 107 µM). This compound also displayed an inhibition at 60 min, 30 µM in data set [5] of 20%.

Compound `CC(=O)N1CCC(CS(=O)(=O)c2ccc(-c3ccc(C#N)cc3F)cc2)CC1` [NASMP-04, 4′-(((1-Acetylpiperidin-4-yl)methyl)sulfonyl)-2-fluoro-[1,1′-biphenyl]-4-carbonitrile] displayed an IC50 in data set [1] (setting [7]) of 1700 nM.

Regarding `CC(=O)N1CCC(CS(=O)(=O)c2ccc(-c3cccc(F)c3F)cc2)CC1` [NASMP-08, 1-(4-(((2′,3′-Difluoro-[1,1′-biphenyl]-4-yl)sulfonyl)methyl)piperidin-1-yl)ethan-1-one], the IC50 in data set [1] (setting [7]) is 3800 nM. This IC50 is about 2.2-fold higher than that of the compound before.

With `CC(=O)N1CCC(CS(=O)(=O)c2ccc(-c3ccc(C#N)cc3)c(F)c2)CC1` [NASMP-10, 4′-(((1-Acetylpiperidin-4-yl)methyl)sulfonyl)-2′-fluoro-[1,1′-biphenyl]-4-carbonitrile], the IC50 in data set [1] (setting [7]) amounted to 3500 nM.

Regarding `CC(=O)N1CCC(CS(=O)(=O)c2ccc(-c3ncc(F)cc3F)c(F)c2)CC1` [NASMP-11, 1-(4-(((4-(3,5-Difluoropyridin-2-yl)-3-fluorophenyl)sulfonyl)methyl)piperidin-1-yl)ethan-1-one], in data set [1] (setting [7]), the IC50 turned out to be 1600 nM. In addition, in data set [4], the hepatocyte CLint at 1 μM is 3.3 µL/min/1e6 cells and the half-life at 1 μM is above 1 h.

Take `CC(=O)N1CCC(CS(=O)(=O)c2ccc(-c3ccc(F)cc3F)c(C#N)c2)CC1` [NASMP-13, 4-(((1-Acetylpiperidin-4-yl)methyl)sulfonyl)-2′,4′-difluoro-[1,1′-biphenyl]-2-carbonitrile]: in data set [1] (setting [7]), the IC50 was 1700 nM.

For `CN(C)C(=O)N1CCC(CS(=O)(=O)c2ccc(-c3ccc(F)cc3F)cc2)CC1` [NASMP-14, 4-(((2′,4′-Difluoro-[1,1′-biphenyl]-4-yl)sulfonyl)methyl)-N,N-dimethylpiperidine-1-carboxamide], the IC50 in data set [1] (setting [7]) stood at 1400 nM. Besides, in data set [4], the hepatocyte CLint at 1 μM turned out to be 28.2 µL/min/1e6 cells and the half-life at 1 μM is 0.97 h.

In the case of `CC(=O)N1CCC(C)(CS(=O)(=O)c2ccc(-c3ccc(Cl)cc3C#N)cc2)CC1` [NASMP-16, 4′-(((1-Acetyl-4-methylpiperidin-4-yl)methyl)sulfonyl)-4-chloro-[1,1′-biphenyl]-2-carbonitrile], it took 1500 nM to reach half-maximal inhibition in data set [1] (setting [7]) (IC50). For the same compound, the half-life at 1 μM in data set [4] is above 1 h. Besides, the “metabolic stability (in words)” value in data set [2] was “exceptionally good stability”.

Compound `CC(=O)N1CCC(C(F)(F)S(=O)(=O)c2ccc(-c3ccc(F)cc3F)cc2)CC1` [NASMP-19, 1-(4-(((2′,4′-Difluoro-[1,1′-biphenyl]-4-yl)sulfonyl)difluoromethyl)piperidin-1-yl)ethan-1-one] came in with an IC50 in data set [1] (setting [7]) of 2800 nM. Moreover, in data set [4], the hepatocyte CLint at 1 μM was found to be 11.7 µL/min/1e6 cells and the half-life at 1 μM worked out at 1.92 h. The same compound registered a solubility at 16 h in data set [3] of 27 µg/mL (≈ 62.9 µM). The compound further displayed an inhibition at 60 min, 30 µM in data set [5] of 21%.

Regarding `CC(=O)N1CCC(CS(=O)(=O)c2ccc(-c3cc(F)cc(F)c3)cc2)CC1` [NASMP-20, 1-(4-(((3′,5′-Difluoro-[1,1′-biphenyl]-4-yl)sulfonyl)methyl)piperidin-1-yl)ethan-1-one], in data set [1] (Homo sapiens, THP-1, 8-point concentration range from 100 μM to 100 nM), inhibition was half-maximal at 18100 nM (IC50). Besides, in data set [4], the hepatocyte CLint at 1 μM is below 3 µL/min/1e6 cells and the half-life at 1 μM was above 7.67 h. Besides, the “metabolic stability (in words)” value in data set [2] is listed as “exceptionally good stability”. In data set [3], the solubility at 16 h turned out to be 37 µg/mL (≈ 94 µM). The compound also showed an inhibition at 60 min, 30 µM in data set [5] of 39%.

These data come from US12162836B2, “N-acyl-{4-[(4-aryl-phenyl)sulfonylmethyl]piperidine} compounds and their therapeutic use” (Modern Biosciences Limited, priority 2019, dated 2024).
